Literature values, collected in patent US20030133903A1, “Compositions for treatment of prostate cancers and methods of making and using the same” (priority 2001, published 2003).

System: LNCaP cell line
Details: already published reports

IC50: low nM or sub nM
SMILES: CC(=O)O[C@H]1C(=O)[C@@]2(C)[C@H]([C@H](OC(=O)c3ccccc3)[C@]3(O)C[C@H](OC(=O)[C@H](O)[C@@H](NC(=O)c4ccccc4)c4ccccc4)C(C)=C1C3(C)C)[C@]1(OC(C)=O)CO[C@@H]1C[C@@H]2O [paclitaxel]
